From patent US7846959B2, “Raf modulators and methods of use” (Exelixis, Inc., priority 2004, dated 2010)

Assays:
[1] = biological target: c-Raf (Homo sapiens, UniProt P04049); assay: Luciferase-coupled chemiluminescence kinase assay (ATP consumption), c-Raf; assay type: biochemical; details: read-out: cRaf-1 IC50
Description: (§1) Tyrosine kinase activity is determined by 1) measurement of kinase-dependent ATP consumption by in the presence of a generic substrate such as […], tyrosine (pEY), by luciferase/luciferin-mediated chemiluminescence or; 2) incorporation of radioactive phosphate derived from ^33P-ATP into a generic substrate which has been adsorbed onto the well surface of polystyrene microtiter plates. Phosphorylated substrate products are quantified by scintillation spectrometry.
(§2) Luciferase-Coupled Chemiluminescence Assay Protocol
(§3) Kinase activity is measured as the percent of ATP consumed following the kinase reaction using luciferase-luciferin-coupled chemiluminescence. Reactions were conducted in 384-well white, medium binding microtiter plates (Greiner). Kinase reactions were initiated by combining test compounds, ATP and kinase in a 20 uL volume. The reaction mixture was incubated at ambient temperature for 3 hrs. For c-Raf, B-Raf, and B-RafV599E, […] of the enzyme was pre-incubated with compound in 20 mM Tris pH 7.5, 10 mM MgCl2, 0.03% TX-100, and 1 mM DTT for 30 minutes at room temperature. Following the kinase reaction, a 20 μL aliquot of luciferase-luciferin mix was added and the chemiluminescence signal measured using a Victor^2 plate reader (Perkin Elmer). The luciferase-luciferin mix contained 50 mM HEPES, pH 7.8, 67 mM oxalic acid (pH 7.8), 5 (or 50) mM DTT, 0.4% Triton X-100, 0.25 mg/mL coenzyme A, 63 μM AMP, 28 μg/mL luciferin and 40,000 units/mL luciferase. Total ATP consumption was limited to 25-60% and the IC50 values correlate well with those determined by radiometric assays.

[2] = biological target: B-Raf (Homo sapiens, UniProt P15056); assay: Luciferase-coupled chemiluminescence kinase assay (ATP consumption), B-Raf; assay type: biochemical; details: read-out: bRaf IC50
B-Raf, sequence (P15056 whole entry): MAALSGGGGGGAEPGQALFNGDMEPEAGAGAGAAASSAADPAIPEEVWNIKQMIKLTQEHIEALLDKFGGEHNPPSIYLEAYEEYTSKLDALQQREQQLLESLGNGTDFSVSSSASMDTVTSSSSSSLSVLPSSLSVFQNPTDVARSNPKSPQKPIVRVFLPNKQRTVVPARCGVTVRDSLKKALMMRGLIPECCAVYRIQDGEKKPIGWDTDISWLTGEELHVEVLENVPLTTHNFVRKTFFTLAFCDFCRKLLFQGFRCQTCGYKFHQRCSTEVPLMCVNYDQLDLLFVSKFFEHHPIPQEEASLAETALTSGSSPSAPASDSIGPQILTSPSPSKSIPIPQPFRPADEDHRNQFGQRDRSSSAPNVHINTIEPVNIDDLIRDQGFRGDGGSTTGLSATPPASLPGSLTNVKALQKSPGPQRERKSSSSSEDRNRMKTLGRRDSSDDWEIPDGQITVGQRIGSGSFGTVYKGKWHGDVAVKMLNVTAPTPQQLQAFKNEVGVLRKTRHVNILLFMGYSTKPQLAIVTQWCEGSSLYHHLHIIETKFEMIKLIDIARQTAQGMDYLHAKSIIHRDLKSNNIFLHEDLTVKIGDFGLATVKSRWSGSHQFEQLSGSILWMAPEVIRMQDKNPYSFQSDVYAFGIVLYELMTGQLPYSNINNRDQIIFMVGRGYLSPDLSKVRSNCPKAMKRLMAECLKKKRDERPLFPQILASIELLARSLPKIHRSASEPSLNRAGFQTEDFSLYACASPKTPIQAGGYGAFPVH
Description: as §1, §2, §3

c-Raf, sequence (P04049 whole entry): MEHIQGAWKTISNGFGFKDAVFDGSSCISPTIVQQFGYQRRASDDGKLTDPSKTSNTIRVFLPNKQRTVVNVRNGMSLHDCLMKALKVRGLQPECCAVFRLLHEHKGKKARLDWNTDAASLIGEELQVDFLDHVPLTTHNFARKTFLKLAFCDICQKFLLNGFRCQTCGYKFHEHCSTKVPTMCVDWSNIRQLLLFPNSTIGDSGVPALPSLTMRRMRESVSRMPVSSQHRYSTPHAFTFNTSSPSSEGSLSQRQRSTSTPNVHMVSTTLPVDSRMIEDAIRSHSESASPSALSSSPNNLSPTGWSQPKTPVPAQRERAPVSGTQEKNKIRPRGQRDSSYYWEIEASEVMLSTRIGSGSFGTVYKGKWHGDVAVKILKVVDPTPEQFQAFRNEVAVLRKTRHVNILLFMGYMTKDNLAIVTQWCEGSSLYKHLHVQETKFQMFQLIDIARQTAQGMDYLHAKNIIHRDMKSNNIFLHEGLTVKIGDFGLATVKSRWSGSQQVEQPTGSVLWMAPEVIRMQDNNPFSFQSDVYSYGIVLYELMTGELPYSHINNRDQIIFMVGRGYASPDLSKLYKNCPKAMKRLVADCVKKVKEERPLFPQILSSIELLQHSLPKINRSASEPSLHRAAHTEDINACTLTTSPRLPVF

An IC50 [1] of 1000 to 10000 nM and an IC50 [2] of 1000 to 10000 nM were found for `CN(C)Cc1cccc(N2C(=O)c3ccccc3C2(O)c2ccc3c(c2)NC(=O)CO3)c1` (stereo not shown) [Entry 86, 6-(2-{3-[(dimethylamino)methyl]phenyl}-1-hydroxy-3-oxo-2,3-dihydro-1H-isoindol-1-yl)-2H-1,4-benzoxazin-3(4H)-one] in this work.

An IC50 [1] of 1000 to 10000 nM and an IC50 [2] of 1000 to 10000 nM were found for `O=C1COc2ccc(C3(O)c4ccccc4C(=O)N3c3cc(Cl)cc(Cl)c3)cc2N1` (stereo not shown) [Entry 87, 6-[2-(3,5-dichlorophenyl)-1-hydroxy-3-oxo-2,3-dihydro-1H-isoindol-1-yl]-2H-1,4-benzoxazin-3(4H)-one] in this work.

`O=C1COc2ccc(C3(O)c4ccccc4C(=O)N3C3CCNCC3)cc2N1` (stereo not shown) [Entry 88, 6-(1-hydroxy-3-oxo-2-piperidin-4-yl-2,3-dihydro-1H-isoindol-1-yl)-2H-1,4-benzoxazin-3(4H)-one] was tested, and the IC50 [1] was ≥ 10000 nM and the IC50 [2] was ≥ 10000 nM.

For `CN(C)CCOc1cccc(N2C(=O)c3ccccc3C2(O)c2ccc3c(c2)NC(=O)CO3)c1` (stereo not shown) [Entry 89, 6-[2-(3-{[2-(dimethylamino)ethyl]oxy}phenyl)-1-hydroxy-3-oxo-2,3-dihydro-1H-isoindol-1-yl]-2H-1,4-benzoxazin-3(4H)-one], the IC50 [1] was ≥ 10000 nM and the IC50 [2] was ≥ 10000 nM.

An IC50 [1] of 1000 to 10000 nM and an IC50 [2] of 1000 to 10000 nM were found for `Cc1ccccc1N1C(=O)c2ccccc2C1(O)c1ccc2c(c1)NC(=O)CO2` (stereo not shown) [Entry 90, 6-[1-hydroxy-2-(2-methylphenyl)-3-oxo-2,3-dihydro-1H-isoindol-1-yl]-2H-1,4-benzoxazin-3(4H)-one] in this work.

`CN(C(=O)c1ccccc1C(=O)c1ccc2c(c1)NC(=O)CO2)c1ccccc1` [Entry 91, N-methyl-2-[(3-oxo-3,4-dihydro-2H-1,4-benzoxazin-6-yl)carbonyl]-N-phenylbenzamide] was tested, and the IC50 [1] was ≥ 10000 nM and the IC50 [2] was ≥ 10000 nM.

An IC50 [1] of 100 to 1000 nM and an IC50 [2] of 100 to 1000 nM were found for `CCOC1(c2ccc3[nH]c(NC(=O)OC)nc3c2)c2ccccc2C(=O)N1Cc1ccccc1` (stereo not shown) [Entry 92, methyl {5-[1-(ethyloxy)-3-oxo-2-(phenylmethyl)-2,3-dihydro-1H-isoindol-1-yl]-1H-benzimidazol-2-yl}carbamate] in this work.

An IC50 [1] of 100 to 1000 nM and an IC50 [2] of 100 to 1000 nM were found for `COC(=O)Nc1nc2cc(C(=O)c3ccccc3C(=O)OCc3ccccc3)ccc2[nH]1` [Entry 93, Phenylmethyl 2-[(2-{[(methyloxy)carbonyl]amino}-1H-benzimidazol-5-yl)carbonyl]benzoate] in this work.

An IC50 [1] of 100 to 1000 nM and an IC50 [2] of 100 to 1000 nM were found for `O=C1c2ccccc2C(O)(c2ccc3[nH]ncc3c2)N1Cc1ccccc1` (stereo not shown) [Entry 94, 3-hydroxy-3-(1H-indazol-5-yl)-2-(phenylmethyl)-2,3-dihydro-1H-isoindol-1-one] in this work.

For `O=C1c2ccccc2C(O)(c2ccc3cn[nH]c3c2)N1Cc1ccccc1` (stereo not shown) [Entry 95, 3-hydroxy-3-(1H-indazol-6-yl)-2-(phenylmethyl)-2,3-dihydro-1H-isoindol-1-one], the IC50 [1] was ≥ 10000 nM and the IC50 [2] was ≥ 10000 nM.

For `CCOC(=O)Nc1nc2cc(C3(O)c4ccccc4C(=O)N3Cc3ccccc3)ccc2[nH]1` (stereo not shown) [Entry 96, ethyl {5-[1-hydroxy-3-oxo-2-(phenylmethyl)-2,3-dihydro-1H-isoindol-1-yl]-1H-benzimidazol-2-yl}carbamate], the IC50 [1] was ≥ 10000 nM and the IC50 [2] was ≥ 10000 nM.

An IC50 [1] of 100 to 1000 nM and an IC50 [2] of 100 to 1000 nM were found for `CC(C)COC(=O)Nc1nc2cc(C3(O)c4ccccc4C(=O)N3Cc3ccccc3)ccc2[nH]1` (stereo not shown) [Entry 97, 2-methylpropyl {5-[1-hydroxy-3-oxo-2-(phenylmethyl)-2,3-dihydro-1H-isoindol-1-yl]-1H-benzimidazol-2-yl}carbamate] in this work.

For `COC(=O)Nc1nc2cc(C3(O)c4ccccc4C(=O)N3Cc3cccs3)ccc2[nH]1` (stereo not shown) [Entry 98, methyl {5-[1-hydroxy-3-oxo-2-(2-thienylmethyl)-2,3-dihydro-1H-isoindol-1-yl]-1H-benzimidazol-2-yl}carbamate], the IC50 [1] was < 100 nM and the IC50 [2] was < 100 nM.

An IC50 [1] of 1000 to 10000 nM and an IC50 [2] of 1000 to 10000 nM were found for `COC(=O)Nc1nc2cc(C3(O)c4ccccc4C(=O)N3CCc3ccccc3)ccc2[nH]1` (stereo not shown) [Entry 99, methyl {5-[1-hydroxy-3-oxo-2-(2-phenylethyl)-2,3-dihydro-1H-isoindol-1-yl]-1H-benzimidazol-2-yl}carbamate] in this work.

In the case of `CC(C)(C)n1c(N)nc2cc(C3(O)c4ccccc4C(=O)N3Cc3ccccc3)ccc21` (stereo not shown) [Entry 100, 3-[2-amino-1-(1,1-dimethylethyl)-1H-benzimidazol-5-yl]-3-hydroxy-2-(phenylmethyl)-2,3-dihydro-1H-isoindol-1-one], the IC50 [1] is reported as ≥ 10000 nM and the IC50 [2] is reported as ≥ 10000 nM.

An IC50 [1] of 1000 to 10000 nM and an IC50 [2] of 1000 to 10000 nM were found for `Nc1nc2cc(C3(O)c4ccccc4C(=O)N3Cc3ccccc3)ccc2[nH]1` (stereo not shown) [Entry 101, 3-(2-amino-1H-benzimidazol-5-yl)-3-hydroxy-2-(phenylmethyl)-2,3-dihydro-1H-isoindol-1-one] in this work.

`COC(=O)Nc1nc2cc(C3(O)NC(=O)c4ccccc43)ccc2[nH]1` (stereo not shown) [Entry 102, methyl [5-(1-hydroxy-3-oxo-2,3-dihydro-1H-isoindol-1-yl)-1H-benzimidazol-2-yl]carbamate] was tested, and the IC50 [1] was ≥ 10000 nM and the IC50 [2] was ≥ 10000 nM.

`COC(C)CCOC(=O)Nc1nc2cc(C3(O)c4ccccc4C(=O)N3Cc3ccccc3)ccc2[nH]1` (stereo not shown) [Entry 103, 3-(methyloxy)butyl {5-[1-hydroxy-3-oxo-2-(phenylmethyl)-2,3-dihydro-1H-isoindol-1-yl]-1H-benzimidazol-2-yl}carbamate] was tested, and the IC50 [1] was < 100 nM and the IC50 [2] was < 100 nM.

For `COC(=O)Nc1nc2cc(C3(O)c4ccccc4C(=O)N3[C@H](C)c3ccccc3)ccc2[nH]1` (stereo partly drawn) [Entry 104, methyl (5-{1-hydroxy-3-oxo-2-[(1R)-1-phenylethyl]-2,3-dihydro-1H-isoindol-1-yl}-1H-benzimidazol-2-yl)carbamate], the IC50 [1] was < 100 nM and the IC50 [2] was < 100 nM.

An IC50 [1] of 1000 to 10000 nM and an IC50 [2] of 1000 to 10000 nM were found for `COC(=O)Nc1nc2cc(C3(O)c4ccccc4C(=O)N3[C@@H](C)c3ccccc3)ccc2[nH]1` (stereo partly drawn) [Entry 105, methyl (5-{1-hydroxy-3-oxo-2-[(1S)-1-phenylethyl]-2,3-dihydro-1H-isoindol-1-yl}-1H-benzimidazol-2-yl)carbamate] in this work.

`COCCOC(=O)Nc1nc2cc(C3(O)c4ccccc4C(=O)N3Cc3ccccc3)ccc2[nH]1` (stereo not shown) [Entry 106, 2-(methyloxy)ethyl {5-[1-hydroxy-3-oxo-2-(phenylmethyl)-2,3-dihydro-1H-isoindol-1-yl]-1H-benzimidazol-2-yl}carbamate] was tested, and the IC50 [1] was < 100 nM and the IC50 [2] was < 100 nM.

With `COC(=O)Nc1nc2ccc(C3(O)c4ccccc4C(=O)N3Cc3ccccc3)cc2n1C` (stereo not shown) [Entry 107, methyl {6-[1-hydroxy-3-oxo-2-(phenylmethyl)-2,3-dihydro-1H-isoindol-1-yl]-1-methyl-1H-benzimidazol-2-yl}carbamate] the IC50 [1] was ≥ 10000 nM and the IC50 [2] was ≥ 10000 nM.

For `C#CCOC(=O)Nc1nc2cc(C3(O)c4ccccc4C(=O)N3Cc3ccccc3)ccc2[nH]1` (stereo not shown) [Entry 108, prop-2-yn-1-yl {5-[1-hydroxy-3-oxo-2-(phenylmethyl)-2,3-dihydro-1H-isoindol-1-yl]-1H-benzimidazol-2-yl}carbamate], the IC50 [1] was < 100 nM and the IC50 [2] was < 100 nM.

In the case of `CC#CCOC(=O)Nc1nc2cc(C3(O)c4ccccc4C(=O)N3Cc3ccccc3)ccc2[nH]1` (stereo not shown) [Entry 109, but-2-yn-1-yl {5-[1-hydroxy-3-oxo-2-(phenylmethyl)-2,3-dihydro-1H-isoindol-1-yl]-1H-benzimidazol-2-yl}carbamate], the IC50 [1] is reported as < 100 nM and the IC50 [2] is reported as < 100 nM.

In the case of `CC(C)OC(=O)Nc1nc2cc(C3(O)c4ccccc4C(=O)N3Cc3ccccc3)ccc2[nH]1` (stereo not shown) [Entry 110, 1-methylethyl {5-[1-hydroxy-3-oxo-2-(phenylmethyl)-2,3-dihydro-1H-isoindol-1-yl]-1H-benzimidazol-2-yl}carbamate], the IC50 [1] is reported as < 100 nM and the IC50 [2] is reported as < 100 nM.

With `COC(=O)Nc1nc2cc(C3(O)c4ccccc4C(=O)N3C3Cc4ccccc4C3)ccc2[nH]1` (stereo not shown) [Entry 111, methyl {5-[2-(2,3-dihydro-1H-inden-2-yl)-1-hydroxy-3-oxo-2,3-dihydro-1H-isoindol-1-yl]-1H-benzimidazol-2-yl}carbamate] the IC50 [1] was ≥ 10000 nM and the IC50 [2] was ≥ 10000 nM.

For `COC(=O)Nc1nc2cc(C3(O)c4ccccc4C(=O)N3Cc3ccncc3)ccc2[nH]1` (stereo not shown) [Entry 112, methyl {5-[1-hydroxy-3-oxo-2-(pyridin-4-ylmethyl)-2,3-dihydro-1H-isoindol-1-yl]-1H-benzimidazol-2-yl}carbamate], the IC50 [1] was 1000 to 10000 nM and the IC50 [2] was ≥ 10000 nM.

An IC50 [1] of 100 to 1000 nM and an IC50 [2] of 100 to 1000 nM were found for `COC(=O)Nc1nc2cc(C3(O)c4ccccc4C(=O)N3Cc3cccnc3)ccc2[nH]1` (stereo not shown) [Entry 113, methyl {5-[1-hydroxy-3-oxo-2-(pyridin-3-ylmethyl)-2,3-dihydro-1H-isoindol-1-yl]-1H-benzimidazol-2-yl}carbamate] in this work.

For `COC(=O)Nc1nc2ccc(C3(O)c4ccccc4C(=O)N3Cc3cccc(F)c3)cc2[nH]1` (stereo not shown) [Entry 114, methyl (6-{2-[(3-fluorophenyl)methyl]-1-hydroxy-3-oxo-2,3-dihydro-1H-isoindol-1-yl}-1H-benzimidazol-2-yl)carbamate], the IC50 [1] was < 100 nM and the IC50 [2] was < 100 nM.
